The record followed here is ChEMBL document CHEMBL4819024, “Synthesis and evaluation of andrographolide derivatives as potent anti-osteoporosis agents in vitro and in vivo” (Eur J Med Chem, 2021).

Calls of active or inactive are those of the source. The rule behind the calls is not given here.

The subject of one data set is RAW264.7. Briefly: Inhibition of RANKL-induced NFkappaB signaling pathway in mouse RAW264.7 cells assessed as reduction in IkappaB alpha degradation at 10 uM preincubated for 4 hrs followed by RANKL stimulation for 10 mins and measured by Western blot analysis. The format is cell-based. The conditions noted are these: time 250.0 min. A general note: In western blotting, separated proteins are transferred to a membrane and probed.

The subject of data set [1] is BMMC. Kind of data set: Anti-osteoporosis activity in C57BL/6 mouse BMM cells assessed as inhibition of M-CSF/RANKL-induced osteoclastogenesis by measuring reduction in multinucleated TRAP+ cells incubated for 5 days with media replenishment for every 48 hrs measured by TRAP-staining based analysis. The class given is functional, cell-based. The conditions noted are these: C57BL/6, BMMC.

Data set [2] relates to BMMC. Briefly: Downregulation of osteoclastogenesis-associated gene expression in C57BL/6 mouse BMM cells assessed as inhibition of M-CSF/RANKL-induced NFATc1 expression at 5 uM after 5 days by qRT-PCR analysis. The following applies: time 5.0 day. The format is functional, cell-based.
The target of data set [3] is c-Jun N-terminal kinase (Mus musculus) (UniProt Q91Y86+Q9WTU6+Q61831). Kind of data set: Inhibition of RANKL-induced JNK phosphorylation in mouse RAW264.7 cells at 1 to 10 uM pretreated for 4 hrs prior to RANKL stimulation for 20 mins by western blot analysis. The class given is cell-based. The following applies: dose 1-10 µM, time 260.0 min.
The nature of data set [4]: Toxicity in OVX-induced bone loss C57BL/6 mouse model assessed as effect on serum TG level at 10 mg/kg, po QD for 4 weeks. The class given is organism-based. The conditions noted are these: in vivo, 672 h, dose 10 mg/kg/day.
In data set [5] the test system is Mus musculus. Briefly: Antiosteoporotic activity against OVX-induced bone loss C57BL/6 mouse model assessed as increase in trabecular bone mass in femoral metaphysis at 10 mg/kg, po QD for 4 weeks by microCT analysis. The class given is functional, organism-based. The following applies: dose 10.0 mg/kg/day.
The test system of data set [6] is Mus musculus. Kind of data set: Antiosteoporotic activity against OVX-induced bone loss C57BL/6 mouse model assessed as increase in trabecular thickness in femoral metaphysis at 10 mg/kg, po QD for 4 weeks. The class given is functional, organism-based. The following applies: dose 10.0 mg/kg/day.
Data set [7] in a line: Toxicity in OVX-induced bone loss C57BL/6 mouse model assessed as effect on thymus morphology at 10 mg/kg, po QD for 4 weeks. The conditions noted are these: in vivo, 672 h, dose 10 mg/kg/day. The class given is organism-based.
Data set [8] relates to Mus musculus. Kind of data set: Antiosteoporotic activity against OVX-induced bone loss C57BL/6 mouse model assessed as increase in trabecular number in femoral metaphysis at 10 mg/kg, po QD for 4 weeks. The following applies: dose 10.0 mg/kg/day. The class given is functional, organism-based.
The test system of data set [9] is Mus musculus. Kind of data set: Antiosteoporotic activity against OVX-induced bone loss C57BL/6 mouse model assessed as decrease in PINP secretion in serum at 10 mg/kg, po QD for 4 weeks. The following applies: dose 10.0 mg/kg/day. The class given is functional, organism-based.
The test system of data set [10] is BMMC. Briefly: Downregulation of osteoclastogenesis-associated gene expression in C57BL/6 mouse BMM cells assessed as inhibition of M-CSF/RANKL-induced MMP9 expression at 5 uM after 5 days by qRT-PCR analysis. The format is functional, cell-based. The following applies: time 5.0 day.

c-Jun N-terminal kinase (Mus musculus), sequence (Q61831 whole entry, looked up): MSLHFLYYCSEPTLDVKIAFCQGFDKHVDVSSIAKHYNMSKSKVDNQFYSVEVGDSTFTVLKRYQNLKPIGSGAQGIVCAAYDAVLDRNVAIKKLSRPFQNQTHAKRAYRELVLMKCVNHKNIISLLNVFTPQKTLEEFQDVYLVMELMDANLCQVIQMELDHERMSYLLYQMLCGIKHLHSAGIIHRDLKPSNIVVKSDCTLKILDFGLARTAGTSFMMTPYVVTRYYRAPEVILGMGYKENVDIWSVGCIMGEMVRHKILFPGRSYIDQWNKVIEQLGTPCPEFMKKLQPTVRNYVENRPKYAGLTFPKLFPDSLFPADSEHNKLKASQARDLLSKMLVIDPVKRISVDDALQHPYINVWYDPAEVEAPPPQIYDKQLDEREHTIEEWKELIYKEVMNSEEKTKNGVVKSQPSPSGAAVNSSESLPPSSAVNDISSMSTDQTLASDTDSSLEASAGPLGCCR
c-Jun N-terminal kinase (Mus musculus), sequence (Q91Y86 whole entry, looked up): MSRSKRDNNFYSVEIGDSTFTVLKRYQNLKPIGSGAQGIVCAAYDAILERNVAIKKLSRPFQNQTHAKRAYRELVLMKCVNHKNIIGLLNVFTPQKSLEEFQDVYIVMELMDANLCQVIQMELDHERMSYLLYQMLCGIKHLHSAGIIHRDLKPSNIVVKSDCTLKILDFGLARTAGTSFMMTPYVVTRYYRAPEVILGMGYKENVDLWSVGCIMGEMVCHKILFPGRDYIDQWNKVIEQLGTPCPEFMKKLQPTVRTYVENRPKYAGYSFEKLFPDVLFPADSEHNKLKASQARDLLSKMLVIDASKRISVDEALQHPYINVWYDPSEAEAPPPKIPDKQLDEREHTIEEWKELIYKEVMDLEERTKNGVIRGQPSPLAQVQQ
c-Jun N-terminal kinase (Mus musculus), sequence (Q9WTU6 whole entry, looked up): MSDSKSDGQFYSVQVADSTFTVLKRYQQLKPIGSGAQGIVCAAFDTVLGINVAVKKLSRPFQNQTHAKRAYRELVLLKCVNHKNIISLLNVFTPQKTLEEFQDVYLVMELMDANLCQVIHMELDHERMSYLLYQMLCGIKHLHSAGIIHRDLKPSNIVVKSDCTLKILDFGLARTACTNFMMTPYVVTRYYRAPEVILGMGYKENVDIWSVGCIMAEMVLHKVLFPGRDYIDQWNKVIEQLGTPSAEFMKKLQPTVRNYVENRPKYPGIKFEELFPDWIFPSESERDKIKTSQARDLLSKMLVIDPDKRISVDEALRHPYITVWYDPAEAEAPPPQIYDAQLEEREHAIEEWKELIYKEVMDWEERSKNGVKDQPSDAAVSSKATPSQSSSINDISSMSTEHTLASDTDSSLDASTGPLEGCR

The term IC50 denotes the concentration that inhibits the measured activity by half. Turning to `C=C1CC[C@@H]2[C@](C)(CNCc3ccc(F)cc3)[C@H](O)CC[C@@]2(C)[C@@H]1/C=C/C1=CCOC1=O`, the inhibition entry in the data set on RAW264.7, in the data set on BMMC [2] and in the data set on BMMC [10] was “Active” each time. For the same compound, in the data set on BMMC [1], the IC50 stood at 0.35 µM. The inhibition result in data set [3] was “inactive”. Also, the Activity result in [4] and in data set [7] was “Non-Toxic” throughout. Also, the result in the data set on Mus musculus [5], in the data set on Mus musculus [6], in the data set on Mus musculus [8] and with Mus musculus [9] was Active.
